Here are results for 11 molecules from publication PMC8707586, “New Inhibitors of Laccase and Tyrosinase by Examination of Cross-Inhibition between Copper-Containing Enzymes” (International Journal of Molecular Sciences, 2021).

The structures appear in SMILES notation.

Experiment [1] concerns the target A. oryzae laccase. In words: Laccase activity assay (L-DOPA substrate), A. oryzae. Format: biochemical, Aspergillus oryzae. The following applies: Ki from IC50 by Cheng–Prusoff, 0.01% Triton X-100. As to the method: (§1) Enzyme activity with inhibitors—All chemical reagents were purchased from either Tokyo Chemical Industry (Tokyo, Japan), ChemBridge (San Diego, CA, USA), or Sigma-Aldrich (St. Louis, MO, USA). The reaction mixture for the tyrosinase assay comprised 20 nM tyrosinase and 500 µM L-DOPA in phosphate-buffered saline. The solution for the ceruloplasmin activity assay comprised 20 nM ceruloplasmin and 500 µM N,N-dimethyl-p-phenylenediamine (DMPD) in 100 mM of sodium acetate buffer at a pH of 5.5. The DBH activity assay was conducted in a reaction mixture containing 10 nM DBH, 500 µM DMPD, and 500 µM tyramine. The solution for the laccase activity assay comprised either 150 nM T. versicolor laccase or 350 nM A. oryzae laccase and 500 µM L-DOPA in 100 mM sodium phosphate buffer with a pH of 5.5. All the solutions included 0.01% Triton X-100 and 5% DMSO in the absence or presence of the inhibitor. After the addition of inhibitors, the solutions were incubated for 15 min at 30 °C. The absorbances of tyrosinase, laccase, ceruloplasmin, and DBH were measured at 475, 475, 550, and 515 nm, respectively, after the addition of substrate to the mixture solution, in a time-dependent manner. […] The Cheng–Prusoff equation with Km was employed to convert the IC50 value into the inhibitory constant, Ki, for each inhibitor [46].

The target of experiment [2] is T1, dopamine-β-hydroxylase (DBH) (Homo sapiens, UniProt P09172).
T1 construct: purchased
T1 sequence (P09172 1-617): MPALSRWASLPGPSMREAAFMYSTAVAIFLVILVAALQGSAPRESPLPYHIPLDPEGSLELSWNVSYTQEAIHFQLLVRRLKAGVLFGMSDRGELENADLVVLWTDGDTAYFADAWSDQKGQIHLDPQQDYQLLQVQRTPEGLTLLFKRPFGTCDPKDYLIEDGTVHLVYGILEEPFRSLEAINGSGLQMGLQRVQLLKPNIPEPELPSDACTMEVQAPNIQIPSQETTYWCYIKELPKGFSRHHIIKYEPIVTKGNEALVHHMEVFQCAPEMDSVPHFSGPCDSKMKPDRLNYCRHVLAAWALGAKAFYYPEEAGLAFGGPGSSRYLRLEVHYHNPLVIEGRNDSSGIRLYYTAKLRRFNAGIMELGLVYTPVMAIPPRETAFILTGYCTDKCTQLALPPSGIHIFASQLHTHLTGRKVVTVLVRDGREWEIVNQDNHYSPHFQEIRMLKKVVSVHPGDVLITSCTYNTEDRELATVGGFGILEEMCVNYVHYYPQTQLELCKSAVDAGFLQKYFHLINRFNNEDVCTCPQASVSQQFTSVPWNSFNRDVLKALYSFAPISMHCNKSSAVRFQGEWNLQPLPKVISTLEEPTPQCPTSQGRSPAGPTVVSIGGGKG
In words: DBH activity assay (DMPD, tyramine). The following applies: for Ki: Ki from IC50 by Cheng–Prusoff. In kind it is biochemical. As to the method: as §1

Experiment [3] has as its target A. oryzae laccase. Kind of experiment: Enzyme inhibitory kinetics, A. oryzae laccase. The following applies: read-out: ** Ki, simulated inhibitory constant by nonlinear fitting assuming competitive inhibition. Format: biochemical, Aspergillus oryzae. As to the method: (§2) Enzyme inhibitory kinetics—The velocities during the generation of the product for each enzyme were measured by varying the substrate and inhibitor concentrations. Simultaneous and nonlinear fitting of all profiles in an inhibitor minimized the Χ^2 value of the differences of theoretical and experimental values in the Michaelis–Menten equation, expressed with the competitive, uncompetitive, noncompetitive, and mixed models. […] The reduced Χ^2 values between the models were compared based on F-statistic to select the most appropriate model. All fittings and statistical analyses were conducted using MATLAB from MathWorks (Natick, MA, USA).

Experiment [4] has as its system laccases. Kind of experiment: Laccase activity assay, statements on both laccases together. In kind it is biochemical, T. versicolor and A. oryzae. The following applies: 50 μM. As to the method:
as §1

In experiment [5] the test system is laccases. In words: Enzyme inhibitory kinetics, laccases from both sources together. In kind it is biochemical, T. versicolor and A. oryzae. The following applies: nonlinear fitting of enzyme kinetics. As to the method: as §2
In the next experiment the target is T2, T. versicolor laccase (Trametes versicolor, UniProt Q12718).
T2 sequence (Q12718 21-519): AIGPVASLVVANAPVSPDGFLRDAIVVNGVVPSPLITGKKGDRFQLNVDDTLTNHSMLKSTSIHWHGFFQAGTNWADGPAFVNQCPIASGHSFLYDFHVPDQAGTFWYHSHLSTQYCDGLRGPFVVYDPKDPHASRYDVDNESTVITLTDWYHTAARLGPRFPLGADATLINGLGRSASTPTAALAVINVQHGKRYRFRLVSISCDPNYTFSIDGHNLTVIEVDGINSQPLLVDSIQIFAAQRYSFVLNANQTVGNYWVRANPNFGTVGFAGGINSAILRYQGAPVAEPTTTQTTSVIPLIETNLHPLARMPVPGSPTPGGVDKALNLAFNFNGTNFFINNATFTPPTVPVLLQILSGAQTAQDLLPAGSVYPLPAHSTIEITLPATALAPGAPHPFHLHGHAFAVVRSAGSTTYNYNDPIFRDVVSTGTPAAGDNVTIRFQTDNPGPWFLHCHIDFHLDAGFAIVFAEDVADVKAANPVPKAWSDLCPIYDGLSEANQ
Kind of experiment: Laccase activity assay (L-DOPA substrate), T. versicolor. Format: biochemical. The following applies: Ki from IC50 by Cheng–Prusoff, 0.01% Triton X-100. As to the method: as §1

Another experiment has as its target T3, ceruloplasmin (Homo sapiens, UniProt P00450).
T3 construct: purchased
T3 sequence (P00450 20-1065): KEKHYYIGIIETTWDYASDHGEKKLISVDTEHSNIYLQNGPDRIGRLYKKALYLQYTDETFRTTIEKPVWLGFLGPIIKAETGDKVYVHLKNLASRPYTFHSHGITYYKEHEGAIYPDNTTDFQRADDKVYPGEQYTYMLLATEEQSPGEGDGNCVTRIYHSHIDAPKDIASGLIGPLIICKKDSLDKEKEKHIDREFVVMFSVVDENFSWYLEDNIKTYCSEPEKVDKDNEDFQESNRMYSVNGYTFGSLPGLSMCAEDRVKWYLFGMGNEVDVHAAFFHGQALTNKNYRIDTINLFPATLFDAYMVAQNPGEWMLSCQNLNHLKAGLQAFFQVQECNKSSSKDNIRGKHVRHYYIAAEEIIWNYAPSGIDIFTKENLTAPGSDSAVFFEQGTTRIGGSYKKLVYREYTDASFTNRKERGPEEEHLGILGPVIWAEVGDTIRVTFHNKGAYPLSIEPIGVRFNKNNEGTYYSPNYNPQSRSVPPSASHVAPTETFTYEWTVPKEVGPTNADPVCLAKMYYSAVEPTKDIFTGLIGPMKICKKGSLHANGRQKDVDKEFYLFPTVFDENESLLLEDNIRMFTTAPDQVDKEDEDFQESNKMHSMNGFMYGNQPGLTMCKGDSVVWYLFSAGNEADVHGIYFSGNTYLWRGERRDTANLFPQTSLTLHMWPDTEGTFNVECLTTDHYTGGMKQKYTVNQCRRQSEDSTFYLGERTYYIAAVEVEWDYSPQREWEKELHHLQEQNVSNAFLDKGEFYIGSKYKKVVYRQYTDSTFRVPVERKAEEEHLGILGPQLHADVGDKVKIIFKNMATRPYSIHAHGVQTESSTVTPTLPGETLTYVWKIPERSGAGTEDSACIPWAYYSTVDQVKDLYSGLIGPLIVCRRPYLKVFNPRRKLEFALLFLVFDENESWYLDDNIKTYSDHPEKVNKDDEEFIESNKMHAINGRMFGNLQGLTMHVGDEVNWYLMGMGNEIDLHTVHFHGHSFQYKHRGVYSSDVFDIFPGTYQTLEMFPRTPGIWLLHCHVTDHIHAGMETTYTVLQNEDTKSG
Kind of experiment: Ceruloplasmin activity assay (DMPD substrate). In kind it is biochemical. The following applies: Ki from IC50 by Cheng–Prusoff. As to the method:
as §1

Experiment [6] deals with T4, mushroom tyrosinase (Agaricus bisporus, UniProt C7FF04). In words: Tyrosinase enzyme activity assay (L-DOPA substrate). Format: biochemical. As to the method:
as §1

For experiment [7], the target named is T4, mushroom tyrosinase. Also noted: method as in PMID 24074025. The following applies: cited from earlier work.

The Ki is the dissociation constant of the complex between target and ligand, obtained from inhibition or displacement.

T4 sequence (C7FF04 1-392): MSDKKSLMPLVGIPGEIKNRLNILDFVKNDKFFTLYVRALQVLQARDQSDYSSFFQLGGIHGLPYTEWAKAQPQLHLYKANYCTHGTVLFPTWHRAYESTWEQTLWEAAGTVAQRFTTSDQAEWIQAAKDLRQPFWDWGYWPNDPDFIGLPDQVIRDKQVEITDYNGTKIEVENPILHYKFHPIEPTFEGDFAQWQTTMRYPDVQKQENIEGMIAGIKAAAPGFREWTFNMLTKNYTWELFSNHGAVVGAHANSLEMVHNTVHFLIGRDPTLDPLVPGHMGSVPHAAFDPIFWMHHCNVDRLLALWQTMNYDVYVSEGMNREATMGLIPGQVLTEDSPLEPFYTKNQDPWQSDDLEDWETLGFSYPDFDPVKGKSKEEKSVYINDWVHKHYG

On A. oryzae laccase [1], `O=c1cccccc1O` [compound 26, tropolone] yielded a Ki of more than 1000 µM. Besides, in experiment [2], the “inhibition of DBH activity” value is given as “significantly decreased DBH activity” and the inhibition constant (Ki) worked out at 9.3 ± 5.5 µM.

With `Cn1cc[nH]c1=S` [compound 16, methimazole], the “inhibition of DBH at single concentration” value in experiment [2] (50 µM) is “neither methimazole nor other thione-containing test molecules significantly inhibited DBH”.

On to `Nc1nc2nc[nH]c2c(=S)[nH]1` [compound 2, thioguanine], for which the inhibition constant Ki on A. oryzae laccase [3] is 26.2 µM; on A. oryzae laccase [1], 21.2 ± 1.7 µM; at A. oryzae laccase [1] (listed as thioguanine), 21 µM. Also, in the experiment with laccases [4], the “inhibitory activities against laccases” value is reported as “substantial inhibitory activities”. For the same molecule, the Mechanism of inhibition entry with laccases [5] is reported as “Competitive”; in the experiment with laccases [5] (listed as thioguanine), “competitive mode”.

Turning to `O=C(O)C(S)C(S)C(=O)O` (stereo not drawn) [compound 19, dimercaptosuccinate], the results for the inhibitory constant (Ki) at A. oryzae laccase [3], at A. oryzae laccase [1] and on A. oryzae laccase [1] (listed as dimercaptosuccinate) were 13.1 µM, 37.3 ± 5.6 µM and 37 µM, respectively. Besides, the “inhibitory activities against laccases” value with laccases [4] is “substantial inhibitory activities”. The Mechanism of inhibition result with laccases [5] was “Competitive”; in the experiment with laccases [5] (listed as dimercaptosuccinate) it was “competitive mode”.

On to `O=c1cc(CO)occ1O` [compound 12, kojic acid], for which the inhibitory constant (Ki) at A. oryzae laccase [1] was more than 1000 µM.

Regarding `OCC(S)CS` (stereo not drawn) [compound 18, dimercaptopropanol], the Ki on A. oryzae laccase [3] was 18 µM; at A. oryzae laccase [1], 18.6 ± 3.3 µM; at A. oryzae laccase [1] (listed as dimercaptopropanol), 18 µM; in experiment [2], 57.9 ± 7.6 µM. Also, the “inhibitory activities against laccases” value with laccases [4] is “substantial inhibitory activities”. Also, the “inhibition of DBH activity” value in experiment [2] was “moderate inhibition”. The Mechanism of inhibition entry in the experiment on laccases [5] is on record as “Competitive”; in the experiment on laccases [5] (listed as dimercaptopropanol) it was “competitive mode”.

Regarding `S=c1[nH]cnc2nc[nH]c12` [compound 1, mercaptopurine], the figures for the inhibition constant Ki on A. oryzae laccase [3], at A. oryzae laccase [1] and at A. oryzae laccase [1] (listed as mercaptopurine) were 17.2 µM, 15.1 ± 4.6 µM and 15 µM, respectively. Moreover, the “inhibitory activities against laccases” value with laccases [4] is “substantial inhibitory activities”. The Mechanism of inhibition entry in the experiment with laccases [5] is “Competitive”; with laccases [5] (listed as mercaptopurine), “competitive mode”.

At A. oryzae laccase [1], `NC(=S)Nc1ccccc1` [compound 24, phenylthiourea (PTU)] returned a Ki of more than 1000 µM.

As to `[NH4+].[NH4+].[SH-].[SH-].[S]=[Mo]=[S]` [compound 28, ammonium tetrathiomolybdate (ATMD)], the Ki on T. versicolor laccase amounted to 12.3 ± 1.3 µM; on T. versicolor laccase (listed as AMTD), 12 µM; at A. oryzae laccase [1], 10.5 ± 2.5 µM; on A. oryzae laccase [1] (listed as AMTD), 10 µM; in [2] it was 23.7 ± 2.7 µM; on ceruloplasmin, 10.9 ± 1.4 µM. Besides, the “inhibition of DBH activity” value in experiment [2] is on record as “significantly decreased DBH activity”.

For `C[C@H](CS)C(=O)N1CCC[C@H]1C(=O)O` [compound 11, captopril], the figures for the inhibitory constant (Ki) at A. oryzae laccase [3], on A. oryzae laccase [1] and at A. oryzae laccase [1] (listed as captopril) were 32.4 µM, 26.3 ± 2.4 µM and 26 µM, respectively. Further, the “inhibitory activities against laccases” value in the experiment with laccases [4] is reported as “substantial inhibitory activities”. Further, the “inhibition of tyrosinase activity” value on mushroom tyrosinase [6] is given as “inhibits tyrosinase activity”. The Mechanism of inhibition entry with laccases [5] is listed as “Competitive”; with laccases [5] (listed as captopril) it was “competitive mode”. Further, on mushroom tyrosinase [7], the “inhibition of tyrosinase (words, literature)” value is “slightly inhibited”.

Take `[N-]=[N+]=[N-].[Na+]` [compound 27, sodium azide]: the inhibition constant Ki at T. versicolor laccase came to 4.2 ± 1.3 µM; on T. versicolor laccase (listed as sodium azide), 4 µM; at A. oryzae laccase [1] it was 3.1 ± 1.7 µM; at A. oryzae laccase [1] (listed as sodium azide), 3 µM; in experiment [2], 70.6 ± 11.6 µM; at ceruloplasmin it was 1.6 ± 0.3 µM. In addition, the “inhibition of DBH activity” value in experiment [2] is “moderate inhibition”.
